From paper PMC10384010, “Chromatographic Data in Statistical Analysis of BBB Permeability Indices” (Membranes, 2023)
Where two headings read alike, the source gives them in different places.

How the values were obtained:
[1] = entering the CNS / not entering the CNS; ref Drugbank [36]; cited from earlier work
[2] = Normal-phase TLC on silica gel 60 F254 (Rf); format: physicochemical; details: water:methanol:acetonitrile 60:20:20, ammonium acetate pH 7.4
Method: (§1) The purity of the isolated substances was checked by TLC chromatography and densitometric scanning.
(§2) APIs were subjected to chromatographic in column (HPLC) and thin layer (TLC) formats. TLC chromatography was carried out on 20 cm × 20 cm glass plates by Merck, covered with silica gel and the addition of a fluorescent indicator. Merck TLC silica gel 60 F254 was used for the normal phase (NP). In the reverse phase (RP), RP-2 silanized plates were used (Merck TLC Silica gel 60 RP-2 F254, silanized). The mobile phase was buffered with ammonium acetate to pH 7.4 (LACH-NER, ammonium acetate).
(§3) Plates, after developing the chromatograms, were scanned using a densitometer (Desaga CD 60) with an analytical wavelength selected individually for drugs. The values of Rf (molecular descriptors: NP, RP) were determined.

[3] = cited from earlier work
[4] = Reversed-phase TLC on RP-2 silanized plates (Rf); format: physicochemical; details: silica gel 60 RP-2 F254 silanized; water:methanol:acetonitrile 60:20:20, ammonium acetate pH 7.4
Method: as §1, §2, §3

[5] = HPLC on IAM (immobilized artificial membrane) column, retention factor; format: physicochemical; details: IAM.PC.DD.2 column; for k(IAM) retention factor: 10 mM phosphate buffer pH 7.4:acetonitrile 80:20; for logkIAM: logarithm of retention factor, phosphate buffer pH 7.4:acetonitrile 80:20
Method: Chromatographic data also came from an experiment with a HPLC IAM (immobilized artificial membrane) column (Regis Technologies Inc.: IAM.PC.DD.2, 10 µm; 4.6 mm × 10 mm). The column contains a standard membrane consisting of a phospholipid bilayer. Organic solvents (acetonitrile and methanol) and water (J.T. Baker HPLC) were used in HPLC. Sigma phosphate buffered saline tablets were used to prepare the phosphate buffer. The mobile phase was a mixture of 10 mM phosphate buffer at pH 7.4 and acetonitrile in the ratio of 80:20 (v/v) [35]. The mobile phase flow was set at 0.5 mL/min; detection was carried out with a UV–Vis detector. The obtained values of the retention factor (k IAM) were transformed into a logarithmic form and entered into the statistical analysis (descriptor: log k IAM).

[6] = cited from earlier work; remark: listed apart in the source
[7] = plasma protein binding, given as fraction, ref Drugbank

Row | Compound | CNS+/- [1] | NP (Rf from NP TLC plate) [2] | Kp,uu,brain (unbound brain-to-plasma drug partition coefficient) [3] | RP (Rf from RP-2 TLC plate) [4] | k(IAM) retention factor [5] | logkIAM [5] | PB (protein binding) [6, 7] | PB (protein binding) ([6]; plasma) | Kp,uu,brain (unbound brain-to-plasma drug partition coefficient) ([3]; in vivo)
1 | CN(C)CCC=C1c2ccccc2CCc2ccccc21 [amitriptyline] | 1 | 0.32 | 1.33 | 0.67 | – | – | – | – | –
2 | NC(=O)N1c2ccccc2C=Cc2ccccc21 [carbamazepine] | 1 | 0.95 | 0.76 | 0.83 | 1.50 | 0.18 | – | – | –
3 | CN(C)CCCN1c2ccccc2Sc2ccc(Cl)cc21 [chlorpromazine] | – | 0.43 | 3.41 | 0.49 | 58.85 | 1.77 | 0.9 | – | –
4 | CN1CCN(C2=Nc3cc(Cl)ccc3Nc3ccccc32)CC1 [clozapine] | – | 0.45 | 3.83 | – | 50.94 | 1.71 | 0.99 | – | –
5 | CN1C[C@H](C(=O)N[C@]2(C)O[C@@]3(O)[C@@H]4CCCN4C(=O)[C@H](Cc4ccccc4)N3C2=O)C[C@@H]2c3cccc4[nH]cc(c34)C[C@H]21 [dihydroergotamine] | 0 | 0.72 | – | 0.78 | – | – | – | 0.93 | 0.02
6 | CN(C)CCC=C1c2ccccc2COc2ccccc21 [doxepin] | 1 | 0.3 | 3.11 | – | – | – | 0.755 | – | –
7 | CNCCC(Oc1ccc(C(F)(F)F)cc1)c1ccccc1 (centres unmarked) [fluoxetine] | – | 0.68 | 5.23 | 0.54 | 66.64 | 1.82 | 0.945 | – | –
8 | NCC1(CC(=O)O)CCCCC1 [gabapentin] | – | – | 0.44 | – | – | – | 0.03 | – | –
9 | O=C(CCCN1CCC(O)(c2ccc(Cl)cc2)CC1)c1ccc(F)cc1 [haloperidol] | – | 0.66 | 1.77 | 0.61 | 23.74 | 1.38 | 0.92 | – | –
10 | Nc1nnc(-c2cccc(Cl)c2Cl)c(N)n1 [lamotrigine] | – | 0.89 | 4.86 | 0.87 | 0.71 | -0.15 | – | – | –
11 | CN1CCN2c3ccccc3Cc3ccccc3C2C1 (centres unmarked) [mianserin] | 1 | 0.54 | 3.22 | 0.55 | 21.72 | 1.34 | 0.9 | – | –
12 | Cc1ncc2n1-c1ccc(Cl)cc1C(c1ccccc1F)=NC2 [midazolam] | 1 | 0.82 | 1.08 | 0.66 | 5.69 | 0.76 | – | – | –
13 | CN1CCN2c3ncccc3Cc3ccccc3C2C1 (centres unmarked) [mirtazapine] | 1 | 0.39 | 3.85 | 0.58 | 5.83 | 0.77 | – | – | –
14 | CC(=O)Nc1ccc(O)cc1 [paracetamol] | 1 | 0.93 | 0.73 | 0.92 | 0.32 | -0.49 | 0.25 | – | –
15 | Fc1ccc([C@@H]2CCNC[C@H]2COc2ccc3c(c2)OCO3)cc1 [paroxetine] | 1 | 0.55 | – | 0.6 | 115.77 | 2.06 | 0.94 | – | –
16 | CCCN1C[C@H](CSC)C[C@@H]2c3cccc4[nH]cc(c34)C[C@H]21 [pergolide] | 1 | 0.48 | 3.19 | 0.55 | – | – | 0.9 | – | –
17 | CCC[C@H](N[C@@H](C)C(=O)N1[C@H](C(=O)O)C[C@@H]2CCCC[C@@H]21)C(=O)OCC [perindopril] | 0 | 0.47 | – | 0.57 | 0.18 | -0.76 | 0.15 | – | –
18 | O=C1NC(=O)C(c2ccccc2)(c2ccccc2)N1 [phenytoin] | 1 | 0.97 | 0.66 | 0.87 | 1.78 | 0.25 | 0.9 | – | –
19 | CN1C(C(=O)Nc2ccccn2)=C(O)c2ccccc2S1(=O)=O [piroxicam] | 0 | 0.98 | – | 0.58 | 0.16 | -0.79 | 0.99 | – | –
20 | CN(C)CCCN1c2ccccc2Sc2ccccc21 [promazine] | 1 | 0.39 | – | 0.51 | 0.10 | -1.02 | 0.94 | – | –
21 | CC(CN1c2ccccc2Sc2ccccc21)N(C)C (centres unmarked) [promethazine] | 1 | 0.43 | – | 0.49 | 14.96 | 1.17 | 0.93 | – | –
22 | OCCOCCN1CCN(C2=Nc3ccccc3Sc3ccccc32)CC1 [quetiapine] | 1 | 0.68 | 1.26 | 0.73 | 17.02 | 1.23 | 0.83 | – | –
23 | CCOC(=O)[C@H](CCc1ccccc1)N[C@@H](C)C(=O)N1Cc2ccccc2C[C@H]1C(=O)O [quinapril] | 0 | 0.44 | – | 0.57 | 1.22 | 0.09 | 0.97 | – | –
24 | CN(C)CCc1c[nH]c2ccc(Cn3cncn3)cc12 [rizatriptan] | 1 | 0.2 | 0.04 | – | 2.53 | 0.40 | – | – | –
25 | CSc1ccc2c(c1)N(CCC1CCCCN1C)c1ccccc1S2 (centres unmarked) [thioridazine] | 1 | 0.47 | 3.5 | 0.4 | 47.61 | 1.68 | – | – | –
26 | O=c1n(CCCN2CCN(c3cccc(Cl)c3)CC2)nc2ccccn12 [trazodone] | 1 | 0.71 | 1.54 | 0.76 | 9.30 | 0.97 | 0.92 | – | –
27 | CCCC(CCC)C(=O)O [valproic acid] | 1 | 0.69 | – | 0.04 | 0.08 | -1.09 | 0.85 | – | –
28 | COc1ccc(C(CN(C)C)C2(O)CCCCC2)cc1 (centres unmarked) [venlafaxine] | – | – | 1.91 | – | 8.25 | 0.92 | 0.27 | – | –
